Test results reported in patent publication US7875715B2, “Compounds for the treatment of multi-drug resistant bacterial infections” (AstraZeneca AB, priority 2005, dated 2011).
Values after ≈ are worked out from the molar mass of the structure shown. Counter-ions that a name gives are not always drawn. Like-named read-outs stand apart in the source and are kept apart here.

Columns and labels:
DNA gyrase = DNA gyrase (Escherichia coli, UniProt P0AES4+P0AES6); assay: Supercoiling assay: inhibition of Escherichia coli DNA supercoiling activity; format: biochemical
Protocol: Compounds were tested for inhibition of Escherichia coli DNA supercoiling activity as follows. Assays were performed in polypropylene multiwell plates in 50 μl reactions containing 35 mM Tris-HCl (pH 7.5), 24 mM KCl, 4 mM MgCl2, 2 mM dithiothreitol, 1.8 mM spermidine, 5% (v/v) glycerol, 200 nM bovine serum albumin, 1.25% (v/v) DMSO, 3 mM ATP, 10 ng/ml relaxed pBR322 plasmid, 0.6 nM DNA gyrase, and test compound. Reactions were quenched after 1 hour by the addition of 10 μl of 30% (w/v) Ficoll-400, 10 mM EDTA, and 5% sodium dodecyl sulfate. Twenty-five μl of each sample was loaded onto a 0.8% (w/v) agarose gel and electrophoresed. The gel and gel buffer contained 1×TBE buffer (89 mM Tris base, 89 mM boric acid, and 2 mM EDTA at pH 8.3). After electrophoresis for 3 hours at 70V, the gel was stained with ethidium bromide and visualized by excitation with ultraviolet light. The fluorescence intensity of the most supercoiled plasmid band was used to measure gyrase activity. Compound potency was based IC50 measurements determined from reactions performed with eight 2-fold serial dilutions of each compound and a control without compound.

Escherichia coli = assay: Bacterial susceptibility testing in liquid media (MIC), E. coli; format: cell-based; settings: lowest concentration reducing growth by 80% or more, 37° C., 24 hours
Protocol: (§1) Compounds were tested for antimicrobial activity by susceptibility testing in liquid media in a 96 well format. Compounds were dissolved in dimethylsulfoxide and tested in 10 doubling dilutions in the susceptibility assays. The organisms used in the assay were grown overnight on suitable agar media and then suspended in a liquid medium appropriate for the growth of the organism. The suspension was a 0.5 McFarland and a further 1 in 10 dilution was made into the same liquid medium to prepare the final organism suspension in 100 μL. Plates were incubated under appropriate conditions at 37° C. for 24 hours prior to reading. The Minimum Inhibitory Concentration (MIC) was determined as the lowest drug concentration able to reduce growth by 80% or more.
(§2) Compounds were evaluated against a panel of Gram-positive species, including Staphylococcus aureus, Streptococcus pneumoniae, Streptococcus pyogenes, and Enterococcus faecium. In addition, compounds were evaluated against a panel of Gram-negative species including Haemophilus influenzae, Escherichia coli and Moraxella catarrhalis.

Streptococcus pneumoniae = assay: Bacterial susceptibility testing in liquid media (MIC), S. pneumo; format: cell-based; settings: MIC: lowest concentration reducing growth by 80% or more; 37° C., 24 hours
Protocol: as §1, §2

GyrB ATPase = GyrB ATPase (Escherichia coli, UniProt P0AES4+P0AES6); assay: ATPase assay: inhibition of GyrB ATPase activity, ammonium molybdate/malachite green phosphate detection; format: biochemical, E. coli
Protocol: Compounds were tested for inhibition of GyrB ATPase activity using an ammonium molybdate/malachite green-based phosphate detection assay (Lanzetta, P. A., L. J. Alvarez, P. S. Reinach, and O. A. Candia, 1979, 100: 95-97). Assays were performed in multiwell plates in 100 μl reactions containing: 50 mM TRIS buffer pH 7.5, 75 mM ammonium acetate, 5.5 mM magnesium chloride, 0.5 mM ethylenediaminetetraacetic acid, 5% glycerol, 1 mM 1,4-dithio-DL-threitol, 200 nM bovine serum albumin, 16 μg/ml sheared salmon sperm DNA, 4 nM E. coli GyrA, 4 nM E. coli GyrB, 250 μM ATP, and compound in dimethylsulfoxide. Reactions were quenched with 150 μL of ammonium molybdate/malachite green detection reagent containing 1.2 mM malachite green hydrochloride, 8.5 mM ammonium molybdate tetrahydrate, and 1 M hydrochloric acid. Plates were read in an absorbance plate reader at 625 nm and percent inhibition values were calculated using dimethylsulfoxide (2%)-containing reactions as 0% inhibition and novobiocin-containing (2 μM) reactions as 100% inhibition controls. Compound potency was based on IC50 measurements determined from reactions performed in the presence of 10 different compound concentrations.

[1] = 4 nM E. coli GyrA, 4 nM E. coli GyrB, 250 μM ATP, read-out: gyrase ATPase (converted)

Chain of DNA gyrase (P0AES4 whole entry, one chain of several): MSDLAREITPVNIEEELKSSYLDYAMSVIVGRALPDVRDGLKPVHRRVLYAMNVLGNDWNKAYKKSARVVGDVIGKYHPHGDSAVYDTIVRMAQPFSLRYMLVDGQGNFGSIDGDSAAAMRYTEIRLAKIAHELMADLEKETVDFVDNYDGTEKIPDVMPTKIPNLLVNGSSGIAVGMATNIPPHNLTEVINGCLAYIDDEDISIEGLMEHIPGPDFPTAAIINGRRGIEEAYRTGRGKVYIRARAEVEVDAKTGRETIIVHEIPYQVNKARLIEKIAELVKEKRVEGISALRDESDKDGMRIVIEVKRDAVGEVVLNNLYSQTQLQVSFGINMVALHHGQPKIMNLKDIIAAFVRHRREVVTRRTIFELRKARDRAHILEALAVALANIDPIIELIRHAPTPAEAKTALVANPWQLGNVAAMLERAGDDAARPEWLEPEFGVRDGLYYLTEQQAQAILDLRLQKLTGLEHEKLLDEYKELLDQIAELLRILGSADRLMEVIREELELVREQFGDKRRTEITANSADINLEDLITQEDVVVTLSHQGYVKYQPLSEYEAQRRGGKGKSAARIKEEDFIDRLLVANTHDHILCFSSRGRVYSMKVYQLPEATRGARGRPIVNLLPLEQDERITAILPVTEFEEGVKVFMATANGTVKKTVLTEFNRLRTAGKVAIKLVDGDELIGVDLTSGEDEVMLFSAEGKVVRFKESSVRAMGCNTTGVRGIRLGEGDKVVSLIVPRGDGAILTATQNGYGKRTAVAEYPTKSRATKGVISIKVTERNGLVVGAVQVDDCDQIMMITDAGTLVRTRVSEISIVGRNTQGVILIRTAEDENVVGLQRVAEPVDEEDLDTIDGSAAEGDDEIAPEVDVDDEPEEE
Chain of GyrB ATPase (P0AES4 whole entry, one chain of several): as above

Molecule `O=C(O)[C@@H]1CN(CCn2c(=O)ccc3c(F)cc(F)cc32)CC[C@H]1NC/C=C/c1cc(F)ccc1F` (as salt: hydrochloride) [Example 17, (3R,4R)-1-[2-(5,7-Difluoro-2-oxoquinolin-1(2H)-yl)ethyl]-4-{[(2E)-3-(2,5-difluorophenyl)prop-2-en-1-yl]amino}piperidine-3-carboxylic acid] has a melting point of over 205 °C.
For `O=C1COc2ccc(CNC3CCN(CCn4c(=O)ccc5ccc(F)cc54)CC3)nc2N1` (as salt: salt) [Example 9, 6-[({1-[2-(7-Fluoro-2-oxoquinolin-1(2H)-yl)ethyl]piperidin-4-yl}amino)methyl]-2H-pyrido[3,2-b][1,4]oxazin-3(4H)-one], the melting point was 150 to 155 °C.
In the case of `COc1ccc2c(=O)ccn(CCN3CCC(NCc4cc5c(cn4)OCCO5)CC3)c2c1` (as salt: hydrochloride) [Example 2, 1-(2-{4-[(2,3-Dihydro[1,4]dioxino[2,3-c]pyridin-7-ylmethyl)amino]piperidin-1-yl}ethyl)-7-methoxyquinolin-4(1H)-one], the melting point is reported as 260 °C.
In the case of `O=C1COc2ccc(F)cc2N1CCN1CCC(NCc2cc3c(cn2)OCCO3)CC1` [Example 26, 4-(2-{4-[(2,3-Dihydro[1,4]dioxino[2,3-c]pyridin-7-ylmethyl)amino]piperidin-1-yl}ethyl)-6-fluoro-2H-1,4-benzoxazin-3(4H)-one], the IC50 (DNA gyrase) is reported as 949 nM, the MIC (Escherichia coli) is reported as 1 µg/mL (≈ 2.26 µM) and the S. pneumo (Streptococcus pneumoniae) is reported as 0.25 microgram/ml.
Molecule `O=C1COc2ccc(CNC3CCN(CCn4c(=O)ccc5ccc(F)c(F)c54)CC3)nc2N1` (as salt: salt) [Example 7, 6-[({1-[2-(7,8-Difluoro-2-oxoquinolin-1(2H)-yl)ethyl]piperidin-4-yl}amino)methyl]-2H-pyrido[3,2-b][1,4]oxazin-3(4H)-one] has a melting point of 158 to 170 °C.
For `O=C(O)[C@H]1CN(CCn2c(=O)ccc3c(F)cc(F)cc32)CC[C@H]1NC/C=C/c1cc(F)ccc1F` (as salt: hydrochloride) [Example 13, (3S,4R)-1-[2-(5,7-Difluoro-2-oxoquinolin-1(2H)-yl)ethyl]-4-{[(2E)-3-(2,5-difluorophenyl)prop-2-en-1-yl]amino}piperidine-3-carboxylic acid], the melting point was 150 to 180 °C.
`N#Cc1ccc2c(c1)N(CCN1CCC(NC/C=C/c3cc(F)ccc3F)CC1)C(=O)CO2` [Example 37, 4-[2-(4-{[(2E)-3-(2,5-Difluorophenyl)prop-2-en-1-yl]amino}piperidin-1-yl)ethyl]-3-oxo-3,4-dihydro-2H-1,4-benzoxazine-6-carbonitrile] gave an IC50 (GyrB ATPase) of 17.7 nM, an MIC (Escherichia coli) of 0.25 µg/mL (≈ 0.552 µM) and a S. pneumo (Streptococcus pneumoniae) of 0.06 microgram/ml.
Work on `O=C1COc2ccccc2N1CCN1CCC(NCc2cc3c(cn2)OCCO3)CC1` [Example 49, 4-(2-{4-[(2,3-Dihydro[1,4]dioxino[2,3-c]pyridin-7-ylmethyl)amino]piperidin-1-yl}ethyl)-2H-1,4-benzoxazin-3(4H)-one] yielded an IC50 (DNA gyrase) of 7070 nM, an MIC (Escherichia coli) of 8 µg/mL (≈ 18.8 µM) and a S. pneumo (Streptococcus pneumoniae) of 4 microgram/ml.
Molecule `O=C(O)[C@@H]1CN(CCn2c(=O)ccc3c(F)cc(F)cc32)CC[C@H]1NCc1cc2c(cn1)OCCO2` (as salt: hydrochloride) [Example 16, (3R,4R)-1-[2-(5,7-Difluoro-2-oxoquinolin-1(2H)-yl)ethyl]-4-[(2,3-dihydro[1,4]dioxino[2,3-c]pyridin-7-ylmethyl)amino]piperidine-3-carboxylic acid] has a melting point of over 190 °C.
For `O=c1ccc2ccc(F)cc2n1CCN1CCC(NCc2cc3c(cn2)OCCO3)CC1` (as salt: HCl) [Example 10, 1-(2-{4-[(2,3-Dihydro[1,4]dioxino[2,3-c]pyridin-7-ylmethyl)amino]piperidin-1-yl}ethyl)-7-fluoroquinolin-2(1H)-one], the melting point was > 275 °C (dec.).
For `Cn1c(=O)c2ccc(F)cc2n(CCN2CCC(NCc3ccc4c(n3)NC(=O)CO4)CC2)c1=O` [Example 66, 7-Fluoro-3-methyl-1-[2-(4-{[(3-oxo-3,4-dihydro-2H-pyrido[3,2-b][1,4]oxazin-6-yl)methyl]amino}piperidin-1-yl)ethyl]quinazoline-2,4(1H,3H)-dione], the IC50 (GyrB ATPase; [1]) was 622 nM, the MIC (Escherichia coli) was 4 µg/mL (≈ 8.29 µM) and the S. pneumo (Streptococcus pneumoniae) was 8 microgram/ml.
For `N#Cc1ccc2ccc(=O)n(CCN3CCC(NCc4ccc5c(n4)NC(=O)CO5)CC3)c2c1` [Example 6, 2-Oxo-1-[2-(4-{[(3-oxo-3,4-dihydro-2H-pyrido[3,2-b][1,4]oxazin-6-yl)methyl]amino}piperidin-1-yl)ethyl]-1,2-dihydroquinoline-7-carbonitrile], the melting point was 212 °C.
`N#Cc1ccc2ccc(=O)n(CCN3CCC(NCc4cc5c(cn4)OCCO5)CC3)c2c1` [Example 5, 1-(2-{4-[(2,3-Dihydro[1,4]dioxino[2,3-c]pyridin-7-ylmethyl)amino]piperidin-1-yl}ethyl)-2-oxo-1,2-dihydroquinoline-7-carbonitrile] showed an IC50 (GyrB ATPase; [1]) of 157 nM, an IC50 (DNA gyrase; 0.6 nM DNA gyrase, relaxed pBR322 plasmid, 1 hour, read-out: gyrase supercoiling (converted)) of 114 nM and an MIC (Escherichia coli) of 0.5 µg/mL (≈ 1.12 µM). It also gave a S. pneumo (Streptococcus pneumoniae) of 0.12 microgram/ml.
`O=C1COc2ccc(CNC3CCN(CCn4c(=O)ccc5c(F)cc(F)cc54)CC3)nc2N1` (as salt: salt) [Example 8, 6-[({1-[2-(5,7-Difluoro-2-oxoquinolin-1(2H)-yl)ethyl]piperidin-4-yl}amino)methyl]-2H-pyrido[3,2-b][1,4]oxazin-3(4H)-one] showed a melting point of 170 to 180 °C.
`COC(=O)c1cc2ccc(OC)cc2n1CCN1CCC(NCc2cc3c(cn2)OCCO3)CC1` [Example 3, Methyl 1-(2-{4-[(2,3-dihydro[1,4]dioxino[2,3-c]pyridin-7-ylmethyl)amino]piperidin-1-yl}ethyl)-6-methoxy-1H-indole-2-carboxylate] showed a melting point of 130 °C.
